Data set [1] in a line: absorption spectrum (maximum absorption wavelength, molar extinction coefficient). Type of data set: physicochemical.
The nature of data set [2]: singlet oxygen efficiency test, reference rose bengal. It is filed as physicochemical.

With `CCNc1c(O)c2c(=O)c(SCCO)c(OC)c3c4c(OC)cc(=O)c5c(NC6CCCC6)c(OC)c6c(c(c1C=C(C)C6C(C)=O)c23)c54` (stereo not drawn) [HB-S-44b], in data set [1], the maximum absorption wavelength amounted to 622 nm and the molar extinction coefficient was 21,000 M^−1cm^−1. The same compound yielded a singlet oxygen yield in data set [2] of 18%.
The matching figures for `COc1c(O)c2c(=O)cc(OC)c3c4c(OC)cc(=O)c5c(NCCS(=O)(=O)O)c(NCCS(=O)(=O)O)c6c(c(c1C(C(C)=O)C(C)=C6)c23)c54` (stereo not drawn) [HB-11a-C2-SO3H]: 620 nm, 30,000 M^−1cm^−1 and 32%.
The matching figures for `COc1c(NCCC(=O)O)c2c(=O)cc(OC)c3c4c(OC)cc(=O)c5c(O)c(NCCC(=O)O)c6c(c(c1C(C(C)=O)C(C)=C6)c23)c54` (stereo not drawn) [HB-10b]: 615 nm, 31,500 M^−1cm^−1 and 34%.
The matching figures for `COc1c2c3c4c(c(NC(CS)C(=O)O)c(=O)c5c(NC(CS)C(=O)O)cc(OC)c(c6c(OC)cc(O)c(c1=O)c63)c54)C=C(C)C2C(C)=O` (stereo not drawn) [HB-25c]: 632 nm, 21,500 M^−1cm^−1 and 20%.
On to `COc1c(O)c2c(=O)cc(OC)c3c4c(OC)cc(=O)c5c(NCCOCCO)c(NCCOCCO)c6c(c(c1C(C(C)=O)C(C)=C6)c23)c54` (stereo not drawn) [HB-1a], for which, in data set [1], the maximum absorption wavelength was determined as 630 nm and the molar extinction coefficient is listed as 30,000 M^−1cm^−1. The same compound returned a singlet oxygen yield in data set [2] of 35%.
The matching figures for `COc1c2c3c4c(c(NC5CCC(C(=O)O)C5)c(=O)c5c(NC6CCC(C(=O)O)C6)cc(OC)c(c6c(OC)cc(O)c(c1=O)c63)c54)C=C(C)C2C(C)=O` (stereo not drawn) [HB-19c]: 622 nm, 25,500 M^−1cm^−1 and 24%.
For `COc1c(O)c2c(=O)cc(OC)c3c4c(OC)cc(=O)c5c(NO)c(NO)c6c(c(c1CC(C)=C6)c23)c54` [HC-37a] the same measures were 620 nm, 30,500 M^−1cm^−1 and 32%.
For `COc1c2c3c4c(c(NCCO)c(=O)c5c(NCCO)cc(OC)c(c6c(OC)cc(O)c(c1=O)c63)c54)C=C(C)C2C(C)=O` (stereo not drawn) [HB-2c], in data set [1], the maximum absorption wavelength stood at 628 nm and the molar extinction coefficient is recorded as 31,000 M^−1cm^−1. The singlet oxygen yield in data set [2] was determined as 30%.
`COc1c(NC2CCC(O)CC2)c2c(=O)cc(OC)c3c4c(OC)cc(=O)c5c(O)c(NC6CCC(O)CC6)c6c(c(c1C(C(C)=O)C(C)=C6)c23)c54` (stereo not drawn) [HB-17b]: in data set [1], the maximum absorption wavelength is 620 nm and the molar extinction coefficient is given as 25,500 M^−1cm^−1. Moreover, the singlet oxygen yield in data set [2] was 20%.
For `COCCOCCN1CCC(CNc2c(NCC3CCN(CCOCCOC)CC3)c3c(=O)cc(OC)c4c5c(OC)cc(=O)c6c(O)c(OC)c7c(c(c2C=C(C)C7C(C)=O)c34)c65)CC1` (stereo not drawn) [HB-32a-PEG1] the same measures were 622 nm, 32,000 M^−1cm^−1 and 32%.
For `COCCOCCC(=O)OCCOCCNc1c2c3c4c(c(OC)c(=O)c5c(O)cc(OC)c(c6c(OC)cc(NCCOCCOC(=O)CCOCCOC)c(c1=O)c63)c54)C(C(C)=O)C(C)=C2` (stereo not drawn) [HB-1c-PEG1], in data set [1], the maximum absorption wavelength is listed as 626 nm and the molar extinction coefficient is 33,000 M^−1cm^−1. In data set [2], this compound gave a singlet oxygen yield of 38%.
The matching figures for `COCCOCCOCCOCCOCCOCCOCCC(=O)N1CCC(CNc2c3c4c5c(c(OC)c(=O)c6c(O)cc(OC)c(c7c(OC)c(Br)c(NCC8CCN(C(=O)CCOCCOCCOCCOCCOCCOCCOC)CC8)c(c2=O)c47)c65)C(C(C)=O)C(C)=C3)CC1` (stereo not drawn) [HB-31c-Br-PEG6]: 631 nm, 33,000 M^−1cm^−1 and 38%.
For `COc1c2c3c4c(c(NCCC5CCC(O)CC5)c(=O)c5c(O)cc(OC)c(c6c(OC)cc(NCCC7CCC(O)CC7)c(c1=O)c63)c54)C=C(C)C2C(C)=O` (stereo not drawn) [HC-18d] the same measures were 622 nm, 23,500 M^−1cm^−1 and 20%.
On to `COc1c2c3c4c(c(NCC5CCC(C(=O)OCCCC[P+](c6ccccc6)(c6ccccc6)c6ccccc6)CC5)c(=O)c5c(O)cc(OC)c(c6c(OC)cc(NCC7CCC(C(=O)OCCCC[P+](c8ccccc8)(c8ccccc8)c8ccccc8)CC7)c(c1=O)c63)c54)C=C(C)C2` (stereo not drawn) [HC-30d-C4-PPh3^+], for which, in data set [1], the maximum absorption wavelength stood at 630 nm and the molar extinction coefficient was 32,500 M^−1cm^−1. Moreover, the singlet oxygen yield in data set [2] turned out to be 31%.
As for `COCCOCCOCCOCCOCCOCCOCCC(=O)N1CCC(CNc2c3c4c5c(c(OC)c(=O)c6c(O)cc(OC)c(c7c(OC)cc(NCC8CCN(C(=O)CCOCCOCCOCCOCCOCCOCCOC)CC8)c(c2=O)c74)c65)C(C(C)=O)C(C)=C3)CC1` (stereo not drawn) [HB-31c-PEG6], in data set [1], the maximum absorption wavelength is recorded as 632 nm and the molar extinction coefficient is 33,500 M^−1cm^−1. Besides, the singlet oxygen yield in data set [2] is on record as 40%.
`CCCCCCNc1c2c3c4c(c(OC)c(=O)c5c(O)cc(OC)c(c6c(OC)cc(NCCCCCC)c(c1=O)c63)c54)CC(C)=C2` [HC-34c]: in data set [1], the maximum absorption wavelength came out at 624 nm and the molar extinction coefficient was 32,500 M^−1cm^−1. Further, the singlet oxygen yield in data set [2] is reported as 38%.
The matching figures for `COc1c(NC2CCCC(C(=O)O)C2)c2c(=O)cc(OC)c3c4c(OC)cc(=O)c5c(O)c(NC6CCCC(C(=O)O)C6)c6c(c(c1C(C(C)=O)C(C)=C6)c23)c54` (stereo not drawn) [HB-15b]: 623 nm, 27,000 M^−1cm^−1 and 24%.
The matching figures for `COCCOC(=O)CCCCCNc1c(NCCCCCC(=O)OCCOC)c2c(=O)cc(OC)c3c4c(OC)cc(=O)c5c(O)c(OC)c6c(c(c1C=C(C)C6)c23)c54` [HC-9a-PEG1]: 621 nm, 30,000 M^−1cm^−1 and 32%.
For `COc1c2c3c4c(c(NCC(=O)O)c(=O)c5c(O)cc(OC)c(c6c(OC)cc(NCCCC(=O)O)c(c1=O)c63)c54)C=C(C)C2C(C)=O` (stereo not drawn) [HB-43d] the same measures were 623 nm, 26,500 M^−1cm^−1 and 24%.
For `COc1c(NCCNCCOCCOCCOCCOCCO)c2c(=O)cc(OC)c3c4c(OC)cc(=O)c5c(O)c(NCCNCCOCCOCCOCCOCCO)c6c(c(c1C(C(C)=O)C(C)=C6)c23)c54` (stereo not drawn) [HB-5b-PEG4], in data set [1], the maximum absorption wavelength is on record as 625 nm and the molar extinction coefficient is 30,500 M^−1cm^−1. The same compound showed a singlet oxygen yield in data set [2] of 31%.
The matching figures for `COCCOCCOCCOCCOCCOCCOCCOCCOCCNC(=O)C1CCC(CNc2c3c4c5c(c(OC)c(=O)c6c(NCC7CCC(C(=O)NCCOCCOCCOCCOCCOCCOCCOCCOCCOC)CC7)cc(OC)c(c7c(OC)cc(O)c(c2=O)c74)c65)C(C(C)=O)C(C)=C3)CC1` (stereo not drawn) [HB-13d-NH-PEG8]: 628 nm, 31,500 M^−1cm^−1 and 32%.
On to `COc1c2c3c4c(c(NCC5CCC(C(=O)OCCCCCC[P+](c6ccccc6)(c6ccccc6)c6ccccc6)CC5)c(=O)c5c(NCC6CCC(C(=O)OCCCCCC[P+](c7ccccc7)(c7ccccc7)c7ccccc7)CC6)cc(OC)c(c6c(OC)cc(O)c(c1=O)c63)c54)C=C(C)C2` (stereo not drawn) [HC-30c-C6-PPh3^+], for which, in data set [1], the maximum absorption wavelength is 632 nm and the molar extinction coefficient is on record as 33,500 M^−1cm^−1. This compound also came in with a singlet oxygen yield in data set [2] of 40%.
For `COc1c(O)c2c(=O)cc(OC)c3c4c(OC)cc(=O)c5c(NCCCCCC(=O)O)c(NCCCCCC(=O)O)c6c(c(c1CC(C)=C6)c23)c54` [HC-9a] the same measures were 620 nm, 26,500 M^−1cm^−1 and 26%.
The matching figures for `COc1c2c3c4c(c(NCCCC(=O)NCCCCS(=O)(=O)O)c(=O)c5c(O)cc(OC)c(c6c(OC)cc(NCCCC(=O)NCCCCS(=O)(=O)O)c(c1=O)c63)c54)C=C(C)C2` [HC-8d-NH—C4-SO3H]: 626 nm, 30,500 M^−1cm^−1 and 32%.
The matching figures for `COc1c2c3c4c(c(NCCCC(=O)NCCCCCC[N+](C)(C)C)c(=O)c5c(NCCCC(=O)NCCCCCC[N+](C)(C)C)cc(OC)c(c6c(OC)cc(O)c(c1=O)c63)c54)C=C(C)C2` [HC-8c-NH—C6-N^+]: 634 nm, 32,000 M^−1cm^−1 and 36%.
`COc1c2c3c4c(c(NC5CCCCC5C(=O)O)c(=O)c5c(NC6CCCCC6C(=O)O)cc(OC)c(c6c(OC)cc(O)c(c1=O)c63)c54)C=C(C)C2C(C)=O` (stereo not drawn) [HB-16c]: in data set [1], the maximum absorption wavelength is given as 628 nm and the molar extinction coefficient was 28,000 M^−1cm^−1. In data set [2], this compound yielded a singlet oxygen yield of 28%.
The matching figures for `COc1c2c3c4c(c(NC(C(=O)O)C(C)C)c(=O)c5c(NC(C(=O)O)C(C)C)cc(OC)c(c6c(OC)cc(O)c(c1=O)c63)c54)C=C(C)C2C(C)=O` (stereo not drawn) [HB-22c]: 620 nm, 21,500 M^−1cm^−1 and 22%.
For `CCNc1c(O)c2c(=O)cc(OC)c3c4c(OC)cc(=O)c5c(NC6CCCC6)c(OC)c6c(c(c1C=C(C)C6C(C)=O)c23)c54` (stereo not drawn) [HB-44b] the same measures were 621 nm, 21,000 M^−1cm^−1 and 18%.
As to `COCCOCCC(=O)N1CCC(CNc2c(NCC3CCN(C(=O)CCOCCOC)CC3)c3c(=O)c(Br)c(OC)c4c5c(OC)cc(=O)c6c(O)c(OC)c7c(c(c2C=C(C)C7C(C)=O)c34)c65)CC1` (stereo not drawn) [HB-31a-Br-PEG1], in data set [1], the maximum absorption wavelength is 624 nm and the molar extinction coefficient was 32,000 M^−1cm^−1. The same compound displayed a singlet oxygen yield in data set [2] of 33%.

The record behind these values is patent US11439707B2, “Hypocrellin derivative substituted both in a peri-position and in 2-position by amino, preparation method, and application thereof” (priority 2017, dated 2022).
